Data reported in patent US6737383B1, “Herbicidal oxadiazolidines” (priority 1999, dated 2004).

Tests used:
wheat = test: Test B pre/postemergence wheat; format: in vivo, Triticum aestivum; settings: for Plant response rating, Wheat: scale of 0 to 10 where 0 is no effect and 10 is complete control
Summary of the method: (§1)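 Response is a visual 0-to-10 score relative to untreated plants, where 0 means no effect and 10 means complete control, taken twelve to sixteen days after application. Treatments went onto soil at planting and onto foliage of 1- to 4-leaf plants, using a surfactant-containing non-phytotoxic solvent.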

smallflower flatsedge = test: Test B flood test smallflower flatsedge; format: in vivo, Cyperus difformis
Summary of the method: (§2)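 Read-out is a visual response score from 0 (no effect) to 10 (complete control), assigned by comparison with untreated controls. Treatment was applied at the 2-leaf stage, and plants stayed in the greenhouse for twelve to sixteen days before scoring.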

giant foxtail = test: Test B pre/postemergence giant foxtail; format: in vivo, Setaria faberii
Summary of the method: as §1

surinam grass = test: Test B pre/postemergence surinam grass; format: in vivo, Brachiaria decumbens
Summary of the method: as §1

crabgrass = test: Test B pre/postemergence crabgrass; format: in vivo, Digitaria sanguinalis
Summary of the method: as §1

morningglory = test: Test B pre/postemergence morningglory; format: in vivo, Ipomoea hederacea; settings: for Plant response rating, Morningglory: scale of 0 to 10 where 0 is no effect and 10 is complete control
Summary of the method: as §1

bedstraw = test: Test B pre/postemergence bedstraw; format: in vivo, Galium aparine
Summary of the method: as §1

purple nutsedge = test: Test B pre/postemergence purple nutsedge; format: in vivo, Cyperus rotundus; settings: for Plant response rating, Nutsedge: scale of 0 to 10 where 0 is no effect and 10 is complete control
Summary of the method: as §1

soybean = test: Test B pre/postemergence soybean; format: in vivo, Glycine max; settings: for Plant response rating, Soybean: scale of 0 to 10 where 0 is no effect and 10 is complete control
Summary of the method: as §1

wild oat = test: Test B pre/postemergence wild oat; format: in vivo, Avena fatua; settings: for Plant response rating, Wild oats: scale of 0 to 10 where 0 is no effect and 10 is complete control
Summary of the method: as §1

velvetleaf = test: Test B pre/postemergence velvetleaf; format: in vivo, Abutilon theophrasti; settings: for Plant response rating, Velvetleaf: scale of 0 to 10 where 0 is no effect and 10 is complete control
Summary of the method: as §1

blackgrass = test: Test B pre/postemergence blackgrass; format: in vivo, Alopecurus myosuroides
Summary of the method: as §1

bamyardgrass = test: Test B flood test barnyardgrass; format: in vivo, Echinochloa crus-galli
Summary of the method: as §2

duck salad = test: Test B flood test duck salad; format: in vivo, Heteranthera limosa
Summary of the method: as §2

corn = test: Test B pre/postemergence corn; format: in vivo, Zea mays
Summary of the method: as §1

cocklebur = test: Test B pre/postemergence cocklebur; format: in vivo, Xanthium strumarium
Summary of the method: as §1

rice = test: Test B flood test rice; format: in vivo, Oryza sativa
Summary of the method: as §2

[1] = Postemergence, Rate 250 g/ha, scale 0 to 10
[2] = Preemergence, Rate 250 g/ha, scale 0 to 10, 0 is no effect, 10 is complete control
[3] = Preemergence, Rate 500 g/ha, scale 0 to 10, 0 is no effect, 10 is complete control
[4] = Rate 62 g/ha, Postemergence, scale 0 to 10 (0 no effect, 10 complete control)
[5] = Rate 125 g/ha, Postemergence, scale 0 to 10, 0 is no effect, 10 is complete control
[6] = Rate 62 g/ha, flood test species, Pre-emergence, visual evaluation after twelve to sixteen days
[7] = Rate 125 g/ha, under heading Pre-emergence, flood test species, visual evaluation after twelve to sixteen days
[8] = Rate 250 g/ha, Pre-emergence (flood test species), scale 0 to 10, 0 is no effect, 10 is complete control
[9] = Rate 500 g/ha, Pre-emergence, flood test species, scale 0 to 10 (0 no effect, 10 complete control)
[10] = Postemergence, Rate 500 g/ha, scale of 0 to 10 where 0 is no effect and 10 is complete control
[11] = Preemergence, Rate 62 g/ha, scale of 0 to 10 where 0 is no effect and 10 is complete control
[12] = Preemergence, Rate 125 g/ha, scale of 0 to 10 where 0 is no effect and 10 is complete control

CC(C)N(C(=O)n1oc(=O)n(CCCl)c1=O)c1ccc(Cl)cc1 [Compound 474]
3: Giant foxtail plant response rating (giant foxtail; [4]) | Soybean plant response rating (soybean; [4]) | Plant response rating, Wild oats (wild oat; Preemergence, Rate 125 g/ha) | Plant response rating, Blackgrass (blackgrass; [11]) | Plant response rating, Blackgrass (blackgrass; [12])
9: Crabgrass plant response rating (crabgrass; [10]) | Plant response rating, Crabgrass (crabgrass; [12]) | Crabgrass plant response rating (crabgrass; [2]) | Blackgrass plant response rating (blackgrass; [3])
0: Wheat plant response rating (wheat; [1]) | Plant response rating, Wheat (wheat; Preemergence, Rate 62 g/ha) | Plant response rating, Wheat (wheat; Preemergence, Rate 125 g/ha) | Wheat plant response rating (wheat; [2]) | Wheat plant response rating (wheat; [3]) | Wheat plant response rating (wheat; [4]) | Wheat plant response rating (wheat; [5]) | Plant response rating, S. Flatsedge (0 to 10 scale, 0 is no effect, 10 is complete control) (smallflower flatsedge; [6]) | S. Flatsedge plant response rating (0 to 10 scale, 0 is no effect, 10 is complete control) (smallflower flatsedge; [7]) | S. Flatsedge plant response rating (smallflower flatsedge; [8]) | S. Flatsedge plant response rating (smallflower flatsedge; [9]) | Plant response rating, B. signalgrass (surinam grass; [11]) | B. signalgrass plant response rating (surinam grass; [4]) | Plant response rating, Morningglory (morningglory; Preemergence, Rate 62 g/ha) | Plant response rating, Morningglory (morningglory; Preemergence, Rate 125 g/ha) | Morningglory plant response rating (morningglory; [2]) | Morningglory plant response rating (morningglory; [3]) | Plant response rating, Bedstraw (bedstraw; [11]) | Bedstraw plant response rating (bedstraw; [3]) | Nutsedge plant response rating (purple nutsedge; [1]) | Plant response rating, Nutsedge (purple nutsedge; Preemergence, Rate 62 g/ha) | Plant response rating, Nutsedge (purple nutsedge; Preemergence, Rate 125 g/ha) | Nutsedge plant response rating (purple nutsedge; [2]) | Nutsedge plant response rating (purple nutsedge; [3]) | Nutsedge plant response rating (purple nutsedge; [4]) | Nutsedge plant response rating (purple nutsedge; [5]) | Plant response rating, Soybean (soybean; Preemergence, Rate 62 g/ha) | Plant response rating, Soybean (soybean; Preemergence, Rate 125 g/ha) | Soybean plant response rating (soybean; [2]) | Soybean plant response rating (soybean; [3]) | Wild oats plant response rating (wild oat; [1]) | Plant response rating, Wild oats (wild oat; Preemergence, Rate 62 g/ha) | Wild oats plant response rating (wild oat; [4]) | Wild oats plant response rating (wild oat; [5]) | Velvetleaf plant response rating (velvetleaf; [1]) | Plant response rating, Velvetleaf (velvetleaf; Preemergence, Rate 62 g/ha) | Plant response rating, Velvetleaf (velvetleaf; Preemergence, Rate 125 g/ha) | Velvetleaf plant response rating (velvetleaf; [2]) | Velvetleaf plant response rating (velvetleaf; [3]) | Velvetleaf plant response rating (velvetleaf; [4]) | Velvetleaf plant response rating (velvetleaf; [5]) | Plant response rating, Barnyardgrass (0 to 10 scale, 0 is no effect, 10 is complete control) (bamyardgrass; [6]) | Barnyardgrass plant response rating (0 to 10 scale, 0 is no effect, 10 is complete control) (bamyardgrass; [7]) | Barnyardgrass plant response rating (bamyardgrass; [8]) | Barnyardgrass plant response rating (bamyardgrass; [9]) | Plant response rating, Ducksalad (0 to 10 scale, 0 is no effect, 10 is complete control) (duck salad; [6]) | Ducksalad plant response rating (0 to 10 scale, 0 is no effect, 10 is complete control) (duck salad; [7]) | Ducksalad plant response rating (duck salad; [8]) | Ducksalad plant response rating (duck salad; [9]) | Corn plant response rating (corn; [1]) | Corn plant response rating (corn; [10]) | Plant response rating, Corn (corn; [11]) | Plant response rating, Corn (corn; [12]) | Corn plant response rating (corn; [2]) | Corn plant response rating (corn; [4]) | Corn plant response rating (corn; [5]) | Cocklebur plant response rating (cocklebur; [1]) | Plant response rating, Cocklebur (cocklebur; [11]) | Plant response rating, Cocklebur (cocklebur; [12]) | Cocklebur plant response rating (cocklebur; [2]) | Cocklebur plant response rating (cocklebur; [3]) | Cocklebur plant response rating (cocklebur; [4]) | Cocklebur plant response rating (cocklebur; [5]) | Plant response rating, Rice (0 to 10 scale, 0 is no effect, 10 is complete control) (rice; [6]) | Rice plant response rating (0 to 10 scale, 0 is no effect, 10 is complete control) (rice; [7]) | Rice plant response rating (rice; [8]) | Rice plant response rating (rice; [9])
4: B. signalgrass plant response rating (surinam grass; [10]) | Soybean plant response rating (soybean; [1]) | Soybean plant response rating (soybean; [5]) | Wild oats plant response rating (wild oat; [2]) | Blackgrass plant response rating (blackgrass; [2]) | Corn plant response rating (corn; [3]) | Cocklebur plant response rating (cocklebur; [10])
8: Giant foxtail plant response rating (giant foxtail; [10]) | Bedstraw plant response rating (bedstraw; [1]) | Bedstraw plant response rating (bedstraw; [10]) | Wild oats plant response rating (wild oat; [3]) | Blackgrass plant response rating (blackgrass; [1]) | Blackgrass plant response rating (blackgrass; [10])
1: B. signalgrass plant response rating (surinam grass; Postemergence, Rate 250 g/ha, scale 0 to 10, 0 no effect, 10 complete control) | B. signalgrass plant response rating (surinam grass; [5]) | Morningglory plant response rating (morningglory; [1]) | Morningglory plant response rating (morningglory; [4]) | Morningglory plant response rating (morningglory; [5])
7: Giant foxtail plant response rating (giant foxtail; [1]) | Plant response rating, Giant foxtail (giant foxtail; [11]) | B. signalgrass plant response rating (surinam grass; [2]) | B. signalgrass plant response rating (surinam grass; [3]) | Blackgrass plant response rating (blackgrass; [4])
10: Plant response rating, Giant foxtail (giant foxtail; [12]) | Giant foxtail plant response rating (giant foxtail; [2]) | Giant foxtail plant response rating (giant foxtail; [3]) | Crabgrass plant response rating (crabgrass; [3])
5: Crabgrass plant response rating (crabgrass; [5])
6: Giant foxtail plant response rating (giant foxtail; [5]) | Crabgrass plant response rating (crabgrass; [1]) | Plant response rating, Crabgrass (crabgrass; [11]) | Bedstraw plant response rating (bedstraw; [4]) | Bedstraw plant response rating (bedstraw; [5])
2: Plant response rating, B. signalgrass (surinam grass; [12]) | Crabgrass plant response rating (crabgrass; [4])
